According to patent US9957264B2 (Merck Sharp & Dohme Corp., priority 2013, dated 2018):

Legend:
[1] = target: JAK1 (recombinant purified GST-tagged catalytic domain) (Homo sapiens (Human), UniProt P23458); test: Jak Biochemical HTRF Assay (JAK1); details: [ATP] 31.8 μM
Summary of the method: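 HTRF kinase format: compounds pre-equilibrated with recombinant GST-tagged JAK1 or JAK2 catalytic domain, then ATP started a 120 min room-temperature reaction on a common peptide substrate. Phosphopeptide detected via Eu-pY20/streptavidin-Dylight 650 after EDTA quench; percent inhibition versus log concentration fitted (4-parameter) to give IC50.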

[2] = target: JAK2 (recombinant purified GST-tagged catalytic domain) (Homo sapiens (Human), UniProt O60674); test: Jak Biochemical HTRF Assay (JAK2); details: [ATP] 8.5 μM
Chain of JAK2 (recombinant purified GST-tagged catalytic domain) (O60674 849-1124): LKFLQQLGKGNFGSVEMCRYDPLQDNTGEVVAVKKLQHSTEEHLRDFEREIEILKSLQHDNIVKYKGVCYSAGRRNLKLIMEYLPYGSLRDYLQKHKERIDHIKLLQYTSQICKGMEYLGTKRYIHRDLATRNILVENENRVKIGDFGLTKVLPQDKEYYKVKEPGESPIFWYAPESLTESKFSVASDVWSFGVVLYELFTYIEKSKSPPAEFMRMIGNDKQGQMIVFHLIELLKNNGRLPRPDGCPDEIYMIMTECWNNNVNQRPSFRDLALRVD
Protocol: Jak Biochemical HTRF Assay Protocol
The ability of compounds to inhibit the activity of JAK1, JAK2, JAK3, and Tyk2 was measured using a recombinant purified GST-tagged catalytic domain for each enzyme (Invitrogen JAK1 #M4290, JAK2 #M4290, JAK3 #M4290, Tyk2 #M4290) in an HTRF format biochemical assay. […] The basic assay protocol is as follows: First, 250 nL of diluted compounds in DMSO were dispensed into the wells of a dry 384-well Black plate (Greiner #781076) using a Labcyte Echo 555 acoustic dispenser. Subsequent reagent additions employed an Agilent Bravo. […] After equilibration, 2 μL of 10×ATP in 1× assay buffer was added to initiate the kinase reaction and the plates were shaken and then incubated at room temperature for 120 minutes. […] Plates were shaken and centrifuged and then incubated 60 minutes at room temperature and then read on a Perkin Elmer Envision (λex=337 nm, λem=665 and 615 nm, TRF delay time=20 μs). HTRF signal=10,000*665 nm reading/615 nm reading. After normalization to untreated controls, the percent inhibition of the HTRF signal at each compound concentration was calculated. The plot of percent inhibition versus the log of compound concentration was fit with a 4-parameter dose response equation to calculate IC50 values.
Final reaction conditions were:
Examples of the instant invention were evaluated in JAK1 and JAK2 in vitro binding assays as described above.

Chain of JAK1 (recombinant purified GST-tagged catalytic domain) (P23458 875-1153): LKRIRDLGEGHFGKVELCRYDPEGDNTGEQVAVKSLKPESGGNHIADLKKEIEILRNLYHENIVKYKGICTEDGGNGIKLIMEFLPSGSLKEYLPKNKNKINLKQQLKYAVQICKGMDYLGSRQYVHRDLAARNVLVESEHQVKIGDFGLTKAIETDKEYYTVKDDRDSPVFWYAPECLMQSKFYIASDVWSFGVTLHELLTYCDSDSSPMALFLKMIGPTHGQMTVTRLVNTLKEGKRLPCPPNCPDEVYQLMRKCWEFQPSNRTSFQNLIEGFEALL

COC(=O)N1CCC(CC#N)(n2nc(Nc3ccc4c(c3)CCC4(O)C(F)(F)F)c3c(=O)[nH]ccc32)CC1 (single isomer, unassigned) [Example 5-144, (R or S)-methyl 4-(cyanomethyl)-4-(3-((1-hydroxy-1-(trifluoro-methyl)-2,3-dihydro-1H-inden-5-yl)amino)-4-oxo-4,5-dihydro-1H-pyrazolo[4,3-c]pyridin-1-yl)piperidine-1-carboxylate]
IC50 [1]: 100 pM
IC50 [2]: 210 pM

Cc1cc(Nc2nn([C@]3(CC#N)CC[C@@H](C(=O)OC(C)(C)C)OC3)c3cc[nH]c(=O)c23)ccc1C(=O)N1CCSC1C (single isomer, unassigned) [Example 5-156, (2S,5S)-tert-butyl 5-(cyanomethyl)-5-(3-((3-methyl-4-((S or R)-2-methylthiazolidine-3-carbonyl)phenyl)amino)-4-oxo-4,5-dihydro-1H-pyrazolo[4,3-c]pyridin-1-yl)tetrahydro-2H-pyran-2-carboxylate]
IC50 [1]: 170 pM
IC50 [2]: 300 pM

Cc1cc(Nc2nn([C@]3(CC#N)CC[C@@H](C(=O)OC(C)(C)C)OC3)c3cc[nH]c(=O)c23)ccc1C(=O)N1CCSC1C (single isomer, unassigned) [Example 5-157, (2S,5S)-tert-butyl 5-(cyanomethyl)-5-(3-((3-methyl-4-((S or R)-2-methylthiazolidine-3-carbonyl)phenyl)amino)-4-oxo-4,5-dihydro-1H-pyrazolo[4,3-c]pyridin-1-yl)tetrahydro-2H-pyran-2-carboxylate]
IC50 [1]: 190 pM
IC50 [2]: 270 pM

CC(C)OC(=O)C(C)(C)C(O)(c1ccc(Nc2nn([C@]3(CC#N)CC[C@@H](C(=O)OC(C)(C)C)OC3)c3cc[nH]c(=O)c23)cc1)C(F)(F)F (single isomer, unassigned) [Example 5-162, (2S,5S)-tert-butyl 5-(cyanomethyl)-5-(4-oxo-3-((4-((S or R)-1,1,1-trifluoro-2-hydroxy-4-isopropoxy-3,3-dimethyl-4-oxobutan-2-yl)phenyl)amino)-4,5-dihydro-1H-pyrazolo[4,3-c]pyridin-1-yl)tetrahydro-2H-pyran-2-carboxylate]
IC50 [1]: 2760 pM
IC50 [2]: 12900 pM

CC(C)OC(=O)C(C)(C)C(O)(c1ccc(Nc2nn([C@]3(CC#N)CC[C@@H](C(=O)OC(C)(C)C)OC3)c3cc[nH]c(=O)c23)cc1)C(F)(F)F (single isomer, unassigned) [Example 5-163, (2S,5S)-tert-butyl 5-(cyanomethyl)-5-(4-oxo-3-((4-((S or R)-1,1,1-trifluoro-2-hydroxy-4-isopropoxy-3,3-dimethyl-4-oxobutan-2-yl)phenyl)amino)-4,5-dihydro-1H-pyrazolo[4,3-c]pyridin-1-yl)tetrahydro-2H-pyran-2-carboxylate]
IC50 [1]: 1960 pM
IC50 [2]: 2210 pM

CC(C)(C)OC(=O)[C@@H]1CC[C@@](CC#N)(n2nc(Nc3ccc4c(c3)CC(C)(C)C4(O)C(F)(F)F)c3c(=O)[nH]ccc32)CO1 (single isomer, unassigned) [Example 5-164, (2S,5S)-tert-butyl 5-(cyanomethyl)-5-(3-(((S or R)-1-hydroxy-2,2-dimethyl-1-(trifluoromethyl)-2,3-dihydro-1H-inden-5-yl)amino)-4-oxo-4,5-dihydro-1H-pyrazolo[4,3-c]pyridin-1-yl)tetrahydro-2H-pyran-2-carboxylate]
IC50 [1]: 590 pM
IC50 [2]: 680 pM

CC(C)(C)OC(=O)[C@@H]1CC[C@@](CC#N)(n2nc(Nc3ccc4c(c3)CC(C)(C)C4(O)C(F)(F)F)c3c(=O)[nH]ccc32)CO1 (single isomer, unassigned) [Example 5-165, (2S,5S)-tert-butyl 5-(cyanomethyl)-5-(3-(((S or R)-1-hydroxy-2,2-dimethyl-1-(trifluoromethyl)-2,3-dihydro-1H-inden-5-yl)amino)-4-oxo-4,5-dihydro-1H-pyrazolo[4,3-c]pyridin-1-yl)tetrahydro-2H-pyran-2-carboxylate]
IC50 [1]: 460 pM
IC50 [2]: 1000 pM

CC(C)(C)OC(=O)[C@@H]1CC[C@@](CC#N)(n2nc(Nc3ccc(C(O)C(F)(F)F)cc3)c3c(=O)[nH]ccc32)CO1 (single isomer, unassigned) [Example 5-168, (2S,5S)-tert-butyl 5-(cyanomethyl)-5-(4-oxo-3-((4-((S or R)-2,2,2-trifluoro-1-hydroxyethyl)phenyl)amino)-4,5-dihydro-1H-pyrazolo [4,3-c]pyridin-1-yl)tetrahydro-2H-pyran-2-carboxylate]
IC50 [1]: 120 pM
IC50 [2]: 510 pM

CC(C)(C)OC(=O)[C@@H]1CC[C@@](CC#N)(n2nc(Nc3ccc(C(O)C(F)(F)F)cc3)c3c(=O)[nH]ccc32)CO1 (single isomer, unassigned) [Example 5-169, (2S,5S)-tert-butyl 5-(cyanomethyl)-5-(4-oxo-3-((4-((S or R)-2,2,2-trifluoro-1-hydroxyethyl)phenyl)amino)-4,5-dihydro-1H-pyrazolo [4,3-c]pyridin-1-yl)tetrahydro-2H-pyran-2-carboxylate]
IC50 [1]: 100 pM
IC50 [2]: 410 pM

CC(C)(C)OC(=O)[C@@H]1CC[C@@](CC#N)(n2nc(Nc3ccc(C(C)(O)C(F)(F)F)cc3)c3c(=O)[nH]ccc32)CO1 (single isomer, unassigned) [Example 5-170, (2S,5S)-tert-butyl 5-(cyanomethyl)-5-(4-oxo-3-((4-((S or R)-1,1,1-trifluoro-2-hydroxypropan-2-yl)phenyl)amino)-4,5-dihydro-1H-pyrazolo[4,3-c]pyridin-1-yl)tetrahydro-2H-pyran-2-carboxylate]
IC50 [1]: 140 pM
IC50 [2]: 480 pM

CC(C)(C)OC(=O)[C@@H]1CC[C@@](CC#N)(n2nc(Nc3ccc(C(C)(O)C(F)(F)F)cc3)c3c(=O)[nH]ccc32)CO1 (single isomer, unassigned) [Example 5-171, (2S,5S)-tert-butyl 5-(cyanomethyl)-5-(4-oxo-3-((4-((S or R)-1,1,1-trifluoro-2-hydroxypropan-2-yl)phenyl)amino)-4,5-dihydro-1H-pyrazolo[4,3-c]pyridin-1-yl)tetrahydro-2H-pyran-2-carboxylate]
IC50 [1]: 70 pM
IC50 [2]: 180 pM

COC(C)(c1ccc(Nc2nn([C@]3(CC#N)CC[C@@H](C(=O)OC(C)(C)C)OC3)c3cc[nH]c(=O)c23)cc1)C(F)(F)F (single isomer, unassigned) [Example 5-172, (2S,5S)-tert-butyl 5-(cyanomethyl)-5-(4-oxo-3-((4-((S or R)-1,1,1-trifluoro-2-methoxypropan-2-yl)phenyl)amino)-4,5-dihydro-1H-pyrazolo[4,3-c]pyridin-1-yl)tetrahydro-2H-pyran-2-carboxylate]
IC50 [1]: 750 pM
IC50 [2]: 1140 pM

CCNC(c1ccc(Nc2nn([C@@]3(CC#N)CCCC[C@H]3F)c3cc[nH]c(=O)c23)cc1)C(F)(F)F (single isomer, unassigned) [Example 5-173, {(1R,2R)-1-[3-({4-[(1R or 1S)-1-(ethylamino)-2,2,2-trifluoroethyl]phenyl}amino)-4-oxo-4,5-dihydro-1H-pyrazolo [4,3-c]pyridin-1-yl]-2-fluorocyclohexyl} acetonitrile]
IC50 [1]: 70 pM
IC50 [2]: 70 pM
